These results are taken from patent US7189758B2, “Glucocorticoid mimetics, methods of making them, pharmaceutical formulations, and uses thereof” (Boehringer Ingelheim Pharmaceuticals, Inc., priority 2002, dated 2007).

The target in test [1] is T1, human glucocorticoid receptor (GR) complex (Homo sapiens, UniProt P04150).
T1 construct: made in house; host or cells: insect cells (baculovirus expression), used as crude lysate
T1 sequence (P04150 1-777): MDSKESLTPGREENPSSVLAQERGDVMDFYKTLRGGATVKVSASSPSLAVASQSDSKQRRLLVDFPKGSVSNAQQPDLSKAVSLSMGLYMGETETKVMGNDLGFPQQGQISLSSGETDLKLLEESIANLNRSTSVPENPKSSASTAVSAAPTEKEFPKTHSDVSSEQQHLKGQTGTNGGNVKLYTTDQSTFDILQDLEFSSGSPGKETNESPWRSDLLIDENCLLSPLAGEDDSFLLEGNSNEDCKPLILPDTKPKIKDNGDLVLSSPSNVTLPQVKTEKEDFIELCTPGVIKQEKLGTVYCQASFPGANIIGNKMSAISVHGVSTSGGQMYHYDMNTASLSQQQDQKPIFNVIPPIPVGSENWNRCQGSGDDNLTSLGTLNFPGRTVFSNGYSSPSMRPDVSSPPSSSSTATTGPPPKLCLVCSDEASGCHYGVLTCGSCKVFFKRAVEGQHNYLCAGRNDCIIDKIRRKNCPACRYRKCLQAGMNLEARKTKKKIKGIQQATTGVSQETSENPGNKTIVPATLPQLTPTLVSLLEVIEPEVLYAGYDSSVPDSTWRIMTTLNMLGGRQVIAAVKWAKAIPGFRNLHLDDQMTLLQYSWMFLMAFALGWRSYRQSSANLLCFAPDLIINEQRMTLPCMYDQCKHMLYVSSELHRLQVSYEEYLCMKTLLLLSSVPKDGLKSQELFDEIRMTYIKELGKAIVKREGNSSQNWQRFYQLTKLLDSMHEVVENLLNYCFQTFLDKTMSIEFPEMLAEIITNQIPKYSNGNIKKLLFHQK
The test can be described thus: Glucocorticoid receptor competitive binding assay (fluorescence polarization, TAMRA-labeled dexamethasone probe). The conditions noted are these: result in words only; IC50 values not given. As for the experimental part:
Compounds of the invention were evaluated for binding to the steroid receptor by a fluorescence polarization competitive binding assay.
A. Glucocorticoid Receptor Competitive Binding Assay
Step 1. Characterization of the Fluorescent Probe
The wavelengths for maximum excitation and emission of the fluorescent probe should first be measured. An example of such a probe is rhodamine (TAMRA)-labeled dexamethasone.
The affinity of the probe for the steroid receptor was then determined in a titration experiment. The fluorescence polarization value of the probe in assay buffer was measured on an SLM-8100 fluorometer using the excitation and emission maximum values described above. Aliquots of expression vector lysate were added and fluorescence polarization was measured after each addition until no further change in polarization value was observed. Non-linear least squares regression analysis was used to calculate the dissociation constant of the probe from the polarization values obtained for lysate binding to the probe.
Step 2. Screening for Inhibitors of Probe Binding
This assay uses fluorescence polarization (FP) to quantitate the ability of test compounds to compete with tetramethyl rhodamine (TAMRA)-labeled dexamethasone for binding to a human glucocorticoid receptor (GR) complex prepared from an insect expression system. The assay buffer was: 10 mM TES, 50 mM KCl, 20 mM Na2MoO4.2H2O, 1.5 mM EDTA, 0.04% w/v CHAPS, 10% v/v glycerol, 1 mM dithiothreitol, pH 7.4. Test compounds were dissolved to 1 mM in neat DMSO and then further diluted to 10× assay concentration in assay buffer supplemented with 10% v/v DMSO. Test compounds were serially diluted at 10× assay concentrations in 10% DMSO-containing buffer in 96-well polypropylene plates. Binding reaction mixtures were prepared in 96-well black Dynex microtiter plates by sequential addition of the following assay components to each well: 15 μL of 10× test compound solution, 85 μL of GR-containing baculovirus lysate diluted 1:170 in assay buffer, and 50 μL of 15 nM TAMRA-labeled dexamethasone. Positive controls were reaction mixtures containing no test compound; negative controls (blanks) were reaction mixtures containing 0.7 μM to 2 μM dexamethasone. […] IC50 values were determined by iterative non-linear curve fitting of the FP signal data to a 4-parameter logistic equation.
In general terms: Fluorescence polarisation rises when a labelled molecule tumbles more slowly, as on binding a larger partner.

The subject of a further test is glucocorticoid receptor. The conditions noted are these: in one or more of the above assays; assay not specified. On the procedure:
Evaluation of agonist or antagonist activity of compounds binding to the glucocorticoid receptor may be determined by any of the assays.
3. Modulation of Tyrosine Aminotransferase (TAT) Induction in Rat Hepatoma Cells
Testing of compounds for agonist or antagonist activity in induction of tyrosine aminotransferase (TAT) in rat hepatoma cells.
H4-II-E-C3 cells were incubated overnight in 96 well plates (20,000 cells/100 μL/well) in MEM medium containing 10% heat inactivated FBS and 1% nonessential amino acids. On the next day, cells were stimulated with the indicated concentrations of dexamethasone or test compound (dissolved in DMSO, final DMSO concentration 0.2%) for 18 hours. Control cells were treated with 0.2% DMSO. After 18 hours, the cells were lysed in a buffer containing 0.1% Triton X-100 and the TAT activity was measured in a photometric assay using tyrosine and alpha-ketoglutarate as substrates.
For measuring antagonist activity, the hepatoma cells were pre-stimulated by addition of dexamethasone (concentration ranges from 3×10^−9 M to 3×10^−8 M) shortly before the test compound was applied to the cells.
4. Modulation of MMTV-Luc Induction in HeLa Cells
Testing of compounds for agonist or antagonist activity in stimulation of MMTV-(mouse mammary tumor virus) promoter in HeLa cells. […]

In the case of `CC(C)(CC(O)(Cc1ccccc1)C(=O)Nc1ccc2c(c1)COC2=O)c1ccccc1` (stereo not drawn) [2-Benzyl-2-hydroxy-4-methyl-4-phenylpentanoic acid (1-oxo-1,3-dihydroisobenzofuran-5-yl)amide], the “activity in the GR binding assay” value in test [1] is “potent activity”. Besides, in the test on glucocorticoid receptor, the “activity as antagonists of the glucocorticoid receptor function” value is listed as “activity as antagonists”.

Take `CC(C)(CC(O)(CC(C)(C)c1ccccc1)C(=O)Nc1ccc2c(c1)COC2=O)c1ccccc1` [2-Hydroxy-4-methyl-2-(2-methyl-2-phenylpropyl)-4-phenylpentanoic acid (1-oxo-1,3-dihydroisobenzofuran-5-yl)amide]: the “activity in the GR binding assay” value in test [1] is reported as “potent activity”.

With `COc1ccc(F)cc1C(C)(C)CC(O)(Cc1cccc(F)c1)C(=O)Nc1ccc2c(c1)COC2=O` (stereo not drawn) [2-(3-Fluorobenzyl)-4-(5-fluoro-2-methoxyphenyl)-2-hydroxy-4-methylpentanoic acid (1-oxo-1,3-dihydroisobenzofuran-5-yl)amide], in test [1], the “activity in the GR binding assay” value is “potent activity”.

For `CC(C)(CC(O)(CC1CCCCC1)C(=O)Nc1ccc2c(c1)COC2=O)c1ccccc1` (stereo not drawn) [2-Cyclohexylmethyl-2-hydroxy-4-methyl-4-phenylpentanoic acid (1-oxo-1,3-dihydroisobenzofuran-5-yl)amide], in test [1], the “activity in the GR binding assay” value was “potent activity”. The “activity as antagonists of the glucocorticoid receptor function” value with glucocorticoid receptor is reported as “activity as antagonists”.
